Measurements from ChEMBL document CHEMBL1147749, “Aromatic sulfide inhibitors of histone deacetylase based on arylsulfinyl-2,4-hexadienoic acid hydroxyamides” (J Med Chem, 2006).

Columns and labels:
MCF7 = experiment: Inhibition of human breast cancer MCF7 cell viability; type: functional, cell-based
SUD4 = experiment: Inhibition of human lymphoma SUD4 cell viability; type: functional, cell-based; conditions: SU-DHL-4
HCT-116 = experiment: Inhibition of human colorectal cancer HCT116 cell viability; type: functional, cell-based
Histone deacetylase [1] = experiment: Inhibition of HDAC in human leukemic CEM cells; type: cell-based; conditions: ccrf-cem
CCRF-CEM = experiment: Inhibition of human leukemic CEM cell viability; type: functional, cell-based
Histone deacetylase [2] = experiment: Inhibition of HDAC in rat liver homogenate; type: tissue-based

Row | Structure (SMILES) | IC50 (Histone deacetylase [1]) | IC50 (Histone deacetylase [2]) | other results
1 | O=C(CCCCC[S+]([O-])c1ccc(Cl)cc1)NO (centres undefined) |  |  | IC50 (MCF7): 6100 nM; IC50 (SUD4): 7500 nM; IC50 (HCT-116): 3900 nM
2 | O=C(/C=C/C=C/CSc1ccc2ccccc2c1)NO | 9400 nM | 700 nM | IC50 (CCRF-CEM): 1700 nM
3 | O=C(/C=C/C=C/CSc1ccc(Cl)cc1)NO | 1600 nM | 310 nM | IC50 (CCRF-CEM): 1600 nM
4 | COc1ccc([S+]([O-])C/C=C/C=C/C(=O)NO)cc1 (centres undefined) | 5400 nM | 410 nM | IC50 (CCRF-CEM): 9600 nM
5 | O=C(/C=C/C=C/C[S+]([O-])c1ccc(Cl)cc1)NO (centres undefined) | 1200 nM | 400 nM | 
6 | O=C(CCCCCS(=O)(=O)c1ccccc1)NO |  | 40 nM | 
7 | O=C(/C=C/C=C/C[S+]([O-])c1ccccc1)NO (centres undefined) | > 25000 nM | 240 nM | 
8 | O=C(CCCCCSc1ccc(NS(=O)(=O)c2ccc(Cl)cc2)cc1)NO |  | 110 nM | 
9 | CC(/C=C/C(=O)NO)=C\C(C)Sc1ccc(N(C)C)cc1 (centres undefined) | 5300 nM | 340 nM | IC50 (CCRF-CEM): 7500 nM
10 | CN(C)c1ccc2sc(/C=C/C=C/C(=O)NO)cc2c1 |  | > 25000 nM | 
11 | O=C(/C=C/C=C/CSc1ccccc1)NO | > 25000 nM | 390 nM | 
12 | CN(C)c1ccc(Sc2cccc(/C=C/C(=O)NO)c2)cc1 | 8600 nM | 160 nM | IC50 (CCRF-CEM): 3400 nM

More lines, main results first:

Row | IC50 (Histone deacetylase [1]) | IC50 (Histone deacetylase [2]) | Structure (SMILES) | other results
13 | > 25000 nM | 260 nM | O=C(CCCCCSc1ccc(Cl)cc1)NO | 
14 |  | 380 nM | O=C(CCCCCC[S+]([O-])c1ccc(Cl)cc1)NO (centres undefined) | 
15 | 7700 nM | 60 nM | O=C(CCCCC[S+]([O-])c1ccccc1)NO (centres undefined) | 
16 |  | 180 nM | CN(C)c1ccc([S+]([O-])CCCCCC(=O)NO)cc1 (centres undefined) | 
17 |  | 120 nM | O=C(CCCCCSc1ccccc1)NO | 
